Measurements as given in US20110230476A1, “PI3 KINASE INHIBITORS AND USES THEREOF” (AVILA THERAPEUTICS, INC., priority 2009, published 2011).

Biological target: T1, PI3Kα (p110α/p85α) (Homo sapiens, UniProt P42336)
T1 construct: purchased BPS Bioscience (San Diego, Calif.) or Millipore (Billerica, Mass.)
Experiment: HTRF assay, potency against active PI3Kα
Format: biochemical
Settings: HTRF; [ATP]=50 μM, [di-C8-PIP2]=10 μM; 30 min pre-incubation; read-out: PI3Kα Inhibition
Outline: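 Active p110/p85α lipid kinase reactions were started with ATP and run 30-60 minutes at 25 °C, then stopped and developed with HTRF detection mix. HTRF ratio converted to % inhibition against ±enzyme controls; IC50 from log[inhibitor] vs response, variable slope.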

T1 sequence (P42336 whole entry): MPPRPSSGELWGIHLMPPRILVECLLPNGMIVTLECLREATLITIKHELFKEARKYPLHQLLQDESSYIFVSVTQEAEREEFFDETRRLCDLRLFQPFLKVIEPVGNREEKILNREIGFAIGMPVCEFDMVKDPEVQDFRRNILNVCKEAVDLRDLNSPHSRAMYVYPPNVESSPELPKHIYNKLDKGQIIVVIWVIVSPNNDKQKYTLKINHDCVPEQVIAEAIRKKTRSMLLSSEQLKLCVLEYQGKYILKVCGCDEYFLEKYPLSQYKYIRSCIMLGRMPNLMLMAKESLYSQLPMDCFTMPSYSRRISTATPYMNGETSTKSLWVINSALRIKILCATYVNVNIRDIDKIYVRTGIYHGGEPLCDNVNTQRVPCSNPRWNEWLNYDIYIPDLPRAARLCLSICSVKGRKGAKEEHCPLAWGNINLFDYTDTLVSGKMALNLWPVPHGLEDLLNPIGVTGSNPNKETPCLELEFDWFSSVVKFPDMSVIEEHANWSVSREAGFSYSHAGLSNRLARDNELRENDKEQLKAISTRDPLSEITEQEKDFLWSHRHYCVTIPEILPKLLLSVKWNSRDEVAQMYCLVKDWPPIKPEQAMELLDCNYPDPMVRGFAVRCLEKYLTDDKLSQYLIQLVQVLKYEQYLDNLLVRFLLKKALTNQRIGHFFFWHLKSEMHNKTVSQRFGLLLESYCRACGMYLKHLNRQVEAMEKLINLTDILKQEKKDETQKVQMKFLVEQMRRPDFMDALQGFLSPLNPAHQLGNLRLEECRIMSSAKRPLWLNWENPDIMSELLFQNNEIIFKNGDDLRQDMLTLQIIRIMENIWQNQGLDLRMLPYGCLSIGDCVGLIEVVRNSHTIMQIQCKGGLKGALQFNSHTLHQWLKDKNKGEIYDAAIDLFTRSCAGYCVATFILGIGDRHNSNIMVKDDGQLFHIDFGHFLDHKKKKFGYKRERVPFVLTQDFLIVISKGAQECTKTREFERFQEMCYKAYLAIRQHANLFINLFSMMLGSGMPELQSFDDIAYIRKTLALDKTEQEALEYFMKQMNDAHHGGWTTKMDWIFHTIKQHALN
T1 sequence (P27986 whole entry partner): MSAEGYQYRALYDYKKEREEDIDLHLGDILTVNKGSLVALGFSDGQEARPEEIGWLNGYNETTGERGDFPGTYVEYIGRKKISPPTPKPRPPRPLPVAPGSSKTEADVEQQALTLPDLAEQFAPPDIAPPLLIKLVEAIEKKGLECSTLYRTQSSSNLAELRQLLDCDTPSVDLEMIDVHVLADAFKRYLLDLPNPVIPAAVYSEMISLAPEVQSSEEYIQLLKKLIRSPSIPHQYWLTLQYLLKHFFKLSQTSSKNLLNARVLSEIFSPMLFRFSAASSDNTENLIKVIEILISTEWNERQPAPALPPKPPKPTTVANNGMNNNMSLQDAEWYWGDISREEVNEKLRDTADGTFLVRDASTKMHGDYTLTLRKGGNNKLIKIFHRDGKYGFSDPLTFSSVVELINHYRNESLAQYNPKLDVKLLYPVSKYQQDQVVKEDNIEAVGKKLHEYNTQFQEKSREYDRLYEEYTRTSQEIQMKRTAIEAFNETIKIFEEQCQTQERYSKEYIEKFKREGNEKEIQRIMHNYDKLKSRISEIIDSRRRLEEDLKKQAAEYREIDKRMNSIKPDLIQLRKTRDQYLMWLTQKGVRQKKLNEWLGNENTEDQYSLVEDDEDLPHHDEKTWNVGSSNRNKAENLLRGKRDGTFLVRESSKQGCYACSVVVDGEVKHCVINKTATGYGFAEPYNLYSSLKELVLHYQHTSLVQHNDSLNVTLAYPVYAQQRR

First: C/C=C/C(=O)OCC(=O)N1CCN(Cc2cc3nc(-c4cccc5[nH]ncc45)nc(N4CCOCC4)c3s2)CC1 [II-a-146, (E)-2-(4-((2-(1H-indazol-4-yl)-4-morpholinothieno[3,2-d]pyrimidin-6-yl)methyl)piperazin-1-yl)-2-oxoethyl but-2-enoate]
Second: C/C=C/C(=O)CCC(=O)NCCCC(=O)N1CCN(Cc2cc3nc(-c4cccc5[nH]ncc45)nc(N4CCOCC4)c3s2)CC1 [II-a-19, (E)-N-(4-(4-((2-(1H-indazol-4-yl)-4-morpholinothieno[3,2-d]pyrimidin-6-yl)methyl)piperazin-1-yl)-4-oxobutyl)-4-oxohept-5-enamide]
The IC50 of the first is higher: > 1000 nM for the first, 10 to 100 nM for the second. The second is the more potent here.

First: C=CC(=O)Nc1ccc(CNC(=O)c2cc(-c3cnc(N)nc3C)nc(N3CCOCC3)c2)cc1 [XII-17, N-(4-acrylamidobenzyl)-2-(2-amino-4-methylpyrimidin-5-yl)-6-morpholinoisonicotinamide]
Second: CC(C)=CC(=O)c1ccc(CCNC(=O)c2cc(-c3cnc(N)nc3)nc(N3CCOCC3)c2)cc1 [XII-10, 2-(2-aminopyrimidin-5-yl)-N-(4-(3-methylbut-2-enoyl)phenethyl)-6-morpholinoisonicotinamide]
The IC50 of the first is higher: > 1000 nM for the first, 100 to 1000 nM for the second.

First: CC(C)=CC(=O)CCCC(=O)N1CC=C(c2cc3nc(-c4cnc(N)nc4)cc(C4=CCOCC4)c3s2)CC1 [II-g-4, 1-(4-(5-(2-aminopyrimidin-5-yl)-7-(3,6-dihydro-2H-pyran-4-yl)thieno[3,2-b]pyridin-2-yl)-5,6-dihydropyridin-1(2H)-yl)-7-methyloct-6-ene-1,5-dione]
Second: CC(C)=CC(=O)CCCC(=O)N1CCN(Cc2cc(-c3cnc(N)nc3)nc(N3CCOCC3)c2)CC1 [XII-23, 1-(4-((2-(2-aminopyrimidin-5-yl)-6-morpholinopyridin-4-yl)methyl)piperazin-1-yl)-7-methyloct-6-ene-1,5-dione]
The IC50 of the first is higher: > 1000 nM for the first, 100 to 1000 nM for the second. The second is the more potent here.

Compared with `O=C(/C=C/c1ccccc1)CCC(=O)N1CCC(O)(c2cc3nc(-c4cccc5[nH]ncc45)nc(N4CCOCC4)c3s2)CC1` [II-a-136, (E)-1-(4-(2-(1H-indazol-4-yl)-4-morpholinothieno[3,2-d]pyrimidin-6-yl)-4-hydroxypiperidin-1-yl)-6-phenylhex-5-ene-1,4-dione], `O=C(C=C1COC1)CCC(=O)N1CCN(Cc2cc3nc(-c4cccc5[nH]ncc45)nc(N4CCOCC4)c3s2)CC1` [II-a-113, 1-(4-((2-(1H-indazol-4-yl)-4-morpholinothieno[3,2-d]pyrimidin-6-yl)methyl)piperazin-1-yl)-5-(oxetan-3-ylidene)pentane-1,4-dione] is higher in IC50: 100 to 1000 nM for the first, > 1000 nM for the second.

First: C/C=C/C(=O)CCC(=O)N1CCC(O)(C#Cc2cc3nc(-c4cccc(O)c4)nc(N4CCOCC4)c3s2)CC1 [II-a-104, (E)-1-(4-hydroxy-4-((2-(3-hydroxyphenyl)-4-morpholinothieno[3,2-d]pyrimidin-6-yl)ethynyl)piperidin-1-yl)hept-5-ene-1,4-dione]
Second: C=CC(=O)N1CCC(O)(CCc2cc3nc(-c4cccc(O)c4)nc(N4CCOCC4)c3s2)CC1 [II-a-111, 1-(4-hydroxy-4-(2-(2-(3-hydroxyphenyl)-4-morpholinothieno[3,2-d]pyrimidin-6-yl)ethyl)piperidin-1-yl)prop-2-en-1-one]
The IC50 of the first is lower: < 10 nM for the first, 10 to 100 nM for the second.

First: C/C=C/C(=O)CCCC(=O)N1CCN(c2ccc(-c3ccnc4ccc(/C=C5\SC(=O)NC5=O)cc34)cc2)CC1 [V-16, (Z)-5-((4-(4-(4-((E)-5-oxooct-6-enoyl)piperazin-1-yl)phenyl)quinolin-6-yl)methylene)thiazolidine-2,4-dione]
Second: C/C=C/C(=O)CCC(=O)N1CCN(Cc2cc3nc(-c4ccnc5[nH]ccc45)nc(N4CCOCC4)c3s2)CC1 [II-a-114, (E)-1-(4-((4-morpholino-2-(1H-pyrrolo[2,3-b]pyridin-4-yl)thieno[3,2-d]pyrimidin-6-yl)methyl)piperazin-1-yl)hept-5-ene-1,4-dione]
The IC50 of the first is lower: < 10 nM for the first, 100 to 1000 nM for the second. The first is the more potent here.

Compared with `CCC(=O)N(C)CC(=O)N1CCC(n2nc(-c3ccc(OC)c(OC)c3)c3c(N)ncnc32)CC1` [XI^R-2, N-(2-(4-(4-amino-3-(3,4-dimethoxyphenyl)-1H-pyrazolo[3,4-d]pyrimidin-1-yl)piperidin-1-yl)-2-oxoethyl)-N-methylpropionamide], `CC(C)=CC(=O)C(=O)N1CCN(C2CCN(c3cc(-c4cnc(N)nc4)nc(N4CCOCC4)c3)CC2)CC1` [XII-35, 1-(4-(1-(2-(2-aminopyrimidin-5-yl)-6-morpholinopyridin-4-yl)piperidin-4-yl)piperazin-1-yl)-4-methylpent-3-ene-1,2-dione] is lower in IC50: > 1000 nM for the first, 100 to 1000 nM for the second. The second is the more potent here.

`C=CC(=O)N[C@H]1CCC[C@@H](C(=O)N2CCN(Cc3cc4nc(-c5cccc6[nH]ncc56)nc(N5CCOCC5)c4s3)CC2)C1` [II-a-98] and `C=CC(=O)NCc1ccc(-c2cc3nc(-c4cccc5[nH]ncc45)nc(N4CCOCC4)c3s2)cc1` [II-a-107, N-(4-(2-(1H-indazol-4-yl)-4-morpholinothieno[3,2-d]pyrimidin-6-yl)benzyl)acrylamide] fall in the same range of IC50: 100 to 1000 nM for the first, 100 to 1000 nM for the second.

First: CC(C)=CC(=O)CCCCC#Cc1cc(-c2cnc(N)nc2)nc(N2CCOCC2)c1 [XII-6, 10-(2-(2-aminopyrimidin-5-yl)-6-morpholinopyridin-4-yl)-2-methyldec-2-en-9-yn-4-one]
Second: CC(C)=CC(=O)C1(C(=O)N2CC=C(C#Cc3cc(-c4cnc(N)nc4)nc(N4CCOCC4)c3)CC2)CC1 [XII-37, 1-(1-(4-((2-(2-aminopyrimidin-5-yl)-6-morpholinopyridin-4-yl)ethynyl)-1,2,3,6-tetrahydropyridine-1-carbonyl)cyclopropyl)-3-methylbut-2-en-1-one]
The IC50 of the first is higher: 100 to 1000 nM for the first, 10 to 100 nM for the second. The second is the more potent here.

`O=C(/C=C/c1cnc[nH]1)NCC12CCC(c3cc4nc(-c5cccc6[nH]ncc56)nc(N5CCOCC5)c4s3)(CC1)OC2` [II-a-177, (E)-N-((1-(2-(1H-indazol-4-yl)-4-morpholinothieno[3,2-d]pyrimidin-6-yl)-2-oxabicyclo[2.2.2]octan-4-yl)methyl)-3-(1H-imidazol-5-yl)acrylamide] and `C=CC(=O)NCC(=O)N1CCCc2cccc(-c3cc4nc(-c5cccc(O)c5)nc(N5CCOCC5)c4s3)c21` [II-a-124, N-(2-(8-(2-(3-hydroxyphenyl)-4-morpholinothieno[3,2-d]pyrimidin-6-yl)-3,4-dihydroquinolin-1(2H)-yl)-2-oxoethyl)acrylamide] fall in the same range of IC50: 100 to 1000 nM for the first, 100 to 1000 nM for the second.

First: CC(C)=CC(=O)CCc1ccc(C#Cc2cc(-c3cccc4[nH]ncc34)nc(N3CCOCC3)c2)cc1 [XII-19, 1-(4-((2-(1H-indazol-4-yl)-6-morpholinopyridin-4-yl)ethynyl)phenyl)-5-methylhex-4-en-3-one]
Second: C=CC(=O)N1CCN(c2ccc(-c3cc(-c4cnc(N)nc4)nc(N4CCOCC4)c3)cn2)CC1 [XII-28, 1-(4-(2′-(2-aminopyrimidin-5-yl)-6′-morpholino-3,4′-bipyridin-6-yl)piperazin-1-yl)prop-2-en-1-one]
The IC50 of the first is higher: > 1000 nM for the first, 100 to 1000 nM for the second.

First: COc1c(OCCNC(=O)CCCC(=O)/C=C/c2ccccc2)ccc2c1N=C(NC(=O)c1cccnc1)N1CCN=C21 [IX-4, (E)-N-(7-methoxy-8-(2-(5-oxo-7-phenylhept-6-enamido)ethoxy)-2,3-dihydroimidazo[1,2-c]quinazolin-5-yl)nicotinamide]
Second: COc1c(OCCNC(=O)CCC(=O)/C=C/c2ccccc2)ccc2c1N=C(NC(=O)c1cccnc1)N1CCN=C21 [IX-3, (E)-N-(7-methoxy-8-(2-(4-oxo-6-phenylhex-5-enamido)ethoxy)-2,3-dihydroimidazo[1,2-c]quinazolin-5-yl)nicotinamide]
The IC50 of the first is higher: 100 to 1000 nM for the first, 10 to 100 nM for the second. The second is the more potent here.
